From PMC7796259, “Evaluation of Ionic Liquids and Ionic Liquids Active Pharmaceutical Ingredients Inhibition in Elastase Enzyme Activity” (Molecules, 2021)
Where two headings read alike, the source gives them in different places. Where a SMILES comes first, the peptide text is derived from it. The star is where a group is joined. MeOSuc = COC(=O)CCC(=O)*; CH2Cl = ClC*

Experiments:
[1] = target: T1, Elastase from porcine pancreas (Sus scrofa, UniProt P00772); test: Elastase inhibition assay, spectrophotometric (N-succinyl-Ala-Ala-Ala-p-nitroanilide, 405 nm); type: biochemical
T1 construct: purchased Sigma-Aldrich; host or cells: porcine pancreas (tissue-derived commercial powder)
T1 sequence (P00772 27-266): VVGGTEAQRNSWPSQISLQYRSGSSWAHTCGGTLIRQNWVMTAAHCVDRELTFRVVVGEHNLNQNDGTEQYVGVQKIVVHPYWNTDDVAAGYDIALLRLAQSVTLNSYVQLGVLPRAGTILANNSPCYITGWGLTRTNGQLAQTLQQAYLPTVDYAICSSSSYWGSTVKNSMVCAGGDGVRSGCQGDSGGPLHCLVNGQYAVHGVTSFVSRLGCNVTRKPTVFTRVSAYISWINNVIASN
Experimental: In order to evaluate the effect of these compounds (ILs and IL-APIs), an enzymatic reaction based on the conversion of the substrate N-succinyl-Ala-Ala-Ala-p-nitroaniline to succinyl-Ala-Ala-Ala and p-nitroaniline by the enzyme elastase was performed. The enzyme activity is determined by the formation of p-nitroaniline, the chromogenic compound resulted from the reaction. Substrate degradation was continuously monitored in the spectrophotometer by measuring increasing absorbance at 405 nm.
The EC50 values for each IL were calculated as the inhibitory concentration causing a 50% decrease in Elastase activity. The EC50 values were automatically calculated, using GraphPad prism8 software.
All the reagents (HEPES buffer, N-succinyl-Ala-Ala-Ala p-nitroanilide, Elastase and acetate buffer) were added sequentially in eppendorf, being the final volume equal to 250 µL. So, in each eppendorf it was added 137.5 µL of HEPES buffer, 10 µL of N-succinyl-Ala-Ala-Ala p-nitroanilide substrate, 30 µL of elastase, 70 µL of acetate buffer, 2.5 µL of DMSO. In inhibitory assays was 87.5 µL of HEPES buffer, 10 µL of N-succinyl-Ala-Ala-Ala p-nitroanilide substrate, 30 µL of elastase, 70 µL of acetate buffer, 2.5 µL of DMSO, and 50 µL of IL/IL-APIs.
Next, the eppendorf was placed inside the thermostatic bath at 37 °C for 10 min.
After 10 min, the reaction product was measured in spectrophotometer at 405 nm.
All assays were performed in batch mode. Thus, the different reagents were placed manually in an eppendorf at the desired concentrations and volumes. After, they were placed in a thermostatic bath where the reaction temperature was regulated for the desired period. The succinyl-Ala-Ala-Ala and p-nitroaniline result from the cleavage of the substrate N-succinyl-Ala-Ala-Ala-p-nitroaniline by porcine elastase enzyme. The enzyme activity was determined by monitoring the chromogenic compound, p-nitroaniline, at 405 nm. All results of ILs and IL-APIs were obtained in duplicate.

carboxylesterase = conditions: read-out: EC50 for carboxylesterase; compared with elastase values; cited from earlier work
[2] = IL-APIs, aqueous solutions, 37 °C, 10 min, substrate 100 µM, duplicate, read-out: EC50 (µM) ± SD

Row | Compound | EC50 [1, 2] [mM] | also measured
1 | COC(=O)CCC(=O)N[C@@H](C)C(=O)N[C@@H](C)C(=O)N1CCC[C@H]1C(=O)N[C@H](C(=O)CCl)C(C)C [MeOSuc-Ala-Ala-Pro-Val-chloromethylketone, reference compound] (MeOSuc-AAPV-CH2Cl) |  | EC50 ([1]; ILs and positive control, aqueous solutions, 37 °C, 10 min, substrate 100 µM, duplicate, read-out: EC50 (mM) ± SD): 0.47 ± 0.05 mM
2 | O=C([O-])c1ccccc1O.[Na+] [Sodium salicylate, reference compound] |  | EC50 (carboxylesterase): 116.99 ± 0.02 µM; EC50 ([1]; read-out: EC50 (µM) ± SD): 0.124 ± 0.004 mM
3 | Benzethonium docusate | > 0.2 | 
4 | CCCCC(CC)COC(=O)CC(C(=O)OCC(CC)CCCC)S(=O)(=O)[O-].CCCCCCCCCCCCCC[P+](CCCCCC)(CCCCCC)CCCCCC [Trihexyltetradecylphosphonium docusate] | > 0.7 | 
5 | O=S(=O)(NS(=O)(=O)C(F)(F)F)C(F)(F)F [Lithium bistriflimide] | 0.209 ± 0.012 | 
6 | CCCC[P+](C)(CCCC)CCCC [Tributylmethylphosphonium salicylate] | > 0.2 | 
7 | CC(C)(C)CC(C)(C)c1ccc(OCCOCC[N+](C)(C)Cc2ccccc2)cc1.O=S(=O)([N-]S(=O)(=O)C(F)(F)F)C(F)(F)F [Benzethonium bistriflimide] | > 1 | 
8 | Benzethonium salicylate | > 0.5 | 
9 | CCCCCCCCCCCCCC[P+](CCCCCC)(CCCCCC)CCCCCC [Trihexyltetradecyphosphonium chloride] | > 0.1 | 
10 | Benzalkonium salicylate | 0.23 ± 0.02 | 
